# Measured values taken from patent publication US7749962B2, “Alpha 5 beta 1 and its ability to regulate the cell survival pathway” (University of Medicine & Dentistry of NJ, priority 2002, dated 2010).
# Like-named read-outs stand apart in the source and are kept apart here.
# Columns and labels:
# Akt [1] = experiment: Western blot of Akt phosphorylation after ATRA; type: cell-based
# Method: MCF-7 cells were treated with EGF 100 ng/ml for 10 min followed by ATRA 10^−7 M or control media 2 h later for an additional 24 h. Western blots of lysates were stained with anti-phospho-Akt ab. Cells were harvested and lysates were prepared as described^2 and analyzed as before^3.
# RhoA = RhoA (Homo sapiens, UniProt P61586); conditions: target RhoA, cited from earlier work
# MDA-MB-231 cells = experiment: Clonogenic potential with growth factors in tissue culture; type: cell-based; conditions: growth factor 10 ng/ml
# Method: (§1) One thousand MCF-7 or MDA MB-231 cells per well were incubated in 24 well tissue culture plates with and without the presence of 10 ng/ml basic fibroblast growth factor (FGF-2) or epidermal growth factor (EFG). Plates were stained with crystal violet after a 5 day incubation and clones consisting of A. 29±2 cells and B. 8±2 cells were counted. C. Ten thousand T-47D cells per well were incubated in 24 well tissue culture plates coated with fibronectin with and without the presence of 10 ng/ml basic fibroblast growth factor (FGF-2) or epidermal growth factor (EFG). Plates were stained with crystal violet after 3 days and clones consisting of 8 or more cells were counted.
# (§2) MCF-7 and T-47D (1,000 cells/well) and MDA MB-231 (200 cells per well) were incubated in 24 well plates±10 ng/ml EFG or FGF-2 for 6 days, stained with crystal violet and clones with ≧29 actively growing cells (▪) or with ≦10 well spread, growth arrested cells ( ? ) were counted.
# (§3) MCF-7, SK-Br-3, MDA-MB-231, PC-3 and LNCaP cells were purchased from the American Type Culture Collection (ATCC), (Rockville, Md.). Cells were cultured in Dulbecco's Modified Eagle's Medium (DMEM) (Gibco BRL, Gaithersburg, Md.) with phenol red 15 mg/l, 2 mM glutamine, 10% heat inactivated fetal calf serum (FCS) and penicillin 50 units/ml and streptomycin 50 micrograms μg/ml (Gemini Bioproducts, Calabasas, Calif.). One to ten thousand cells were incubated on 24 well tissue culture plates that were either commercially coated for tissue culture (uncoated) or coated with 20 g fibronectin, laminin I, collagen I or collagen IV, depending on the cell type or experimental conditions described in the figure legends. Colonies were manually counted at 100× magnification after variable days in culture as described in the figure legends after removing the media and staining cells with crystal violet. Proliferation kinetics were performed as before^1 using 2% trypan blue counts on trypsinized cells on the days indicated in the figure in triplicate plates.
# MCF-7 and T-47D cells = experiment: as above; type: cell-based; conditions: growth factor 10 ng/ml
# Method: as §1, §2, §3
# Akt [2] = experiment: Western blot of Akt phosphorylation by FGF-2 on fibronectin; type: cell-based
# Method: Western blots of lysates from MCF-7, T-47D and MDA-MB-231 cells incubated on fibronectin-coated plates with FGF-2 for up to 5 days were stained with antibody to phospho-Akt or total Akt. […] No effect was noted on total Akt levels. Stained membrane was used as a loading control.
# (§4) Cells were harvested and lysates were prepared as described^2 and analyzed as before^3.
# integrin α5 = experiment: Western blot of integrin α5 expression ± FGF-2; type: cell-based
# Method: A. Gene chip analysis of integrin α5 and β1 mRNA expression in MCF-7 cells incubated±FGF-2 for 3 or 5 days on fibronectin-coated plates. Densitometer quantitations normalized against GAPDH and actin mRNA standards are shown. B. Western blots of integrin α5 from cells incubated±FGF-2 for 3 days on tissue culture- or fibronectin-coated dishes. C. Indirect immunofluorescence of integrin α5 in T-47D cells on cover slips±FGF-2 10 ng/ml for 24 hours. D. Western blots of integrins α2, α3, α4, α6, β1, β3 and β4 in MCF-7 and T-47D cells incubated±FGF-2 for 3 days. Nonspecific bands were as loading controls.
# as §4
# MCF-7 cells = experiment: Clonogenicity ± fibronectin with FGF-2 and fibronectin-blocking peptide; type: cell-based; conditions: FGF-2 10 ng/ml; peptide 1 ng/ml added after 3 days, counted 6 days later
# Method: 10^3 MCF-7 (and T-47D, not shown) cells were incubated±fibronectin with 10 ng/ml FGF-2. Fibronectin-blocking peptide GRGDSP 1 ng/ml (American Peptide Co., Inc, Sunnyvale, Calif.) was added after 3 days and 4, 8 and 12 cell colonies were counted 6 days later.
# as §3
# Chain of RhoA (P61586 whole entry, species assumed): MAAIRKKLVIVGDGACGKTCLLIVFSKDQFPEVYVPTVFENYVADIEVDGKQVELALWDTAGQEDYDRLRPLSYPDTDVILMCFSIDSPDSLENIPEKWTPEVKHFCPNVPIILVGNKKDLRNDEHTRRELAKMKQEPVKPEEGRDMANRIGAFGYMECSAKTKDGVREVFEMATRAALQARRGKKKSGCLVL
compound,measurement,setting,value
"CC1=C(/C=C/C(C)=C/C=C/C(C)=C/C(=O)O)C(C)(C)CCC1 [ATRA, all-trans retinoic acid]",FGF-2 induced increases in total and phosphorylated Akt,Akt [1],reversed FGF-2 induced increases in total and Phosphorylated Akt
same,EGF-mediated phosphorylation of Akt,"Akt [1]; MCF-7 cells, EGF 100 ng/ml, ATRA 10^−7 M for 24 h",reversed the EGF-mediated phosphorylation of Akt
C3 transferase,ED50,RhoA,2 to 5 µg/mL
same,ED50,RhoA; listed as C3 transferase inhibitor,2 to 5 µg/mL
"EFG: epidermal growth factor; recombinant human, R&D Systems",growth (clonogenic potential),MDA-MB-231 cells,no effect
same,clonogenic potential,MCF-7 and T-47D cells,no effect
"FGF-2: fibroblast growth factor 2, basic fibroblast growth factor; recombinant human, R&D Systems",phosphorylation of Akt,"Akt [2]; MCF-7 and T-47D cells on fibronectin, up to 5 days",induced phosphorylation of Akt
same,phosphorylation of Akt,"Akt [2]; MDA-MB-231 cells on fibronectin, constitutive phosphorylation",no effect on constitutive Akt phosphorylation
same,growth (clonogenic potential),MDA-MB-231 cells,no effect
same,clonogenic potential,MCF-7 and T-47D cells,markedly diminished clonogenic potential
same,integrin α5 expression,integrin α5; MCF-7 and T-47D cells on plastic or fibronectin-coated dishes,induction of integrin α5 expression
same,integrin α5 expression,"integrin α5; MDA-MB-231 cells, baseline high levels",No effect
GRGDSP,colonies on fibronectin,MCF-7 cells,only inhibited colonies on fibronectin
same,colonies on plastic,MCF-7 cells,not on plastic
